Read-outs that look alike come from different tables or passages of the source.
How the values were obtained:
Human plasma kallikrein = Human plasma kallikrein (Homo sapiens (Human), UniProt P03952); assay: Kallikrein Assay; assay type: biochemical; details: purified Human plasma kallikrein 0.5 nM, Acetyl-K-P-R-AFC, pH 7.4; Ki from IC50 by Cheng Prusoff
Method in brief: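 Purified human plasma kallikrein (0.5 nM final) with Acetyl-K-P-R-AFC substrate ([…]) in 50 mM HEPES pH 7.4, 150 mM NaCl, 5 mM CaCl2, 0.1% PEG 8000, after enzyme-inhibitor equilibration. Fluorescence (405 ex/510 em) under linear conditions; IC50 from four-parameter fit, converted to Ki by Cheng-Prusoff.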

human Factor XIa = human Factor XIa (Homo sapiens (Human), UniProt P03951); assay: Factor XIa Assay; assay type: biochemical; details: read-out: FXIa Ki
Sequence of human Factor XIa (P03951 388-625): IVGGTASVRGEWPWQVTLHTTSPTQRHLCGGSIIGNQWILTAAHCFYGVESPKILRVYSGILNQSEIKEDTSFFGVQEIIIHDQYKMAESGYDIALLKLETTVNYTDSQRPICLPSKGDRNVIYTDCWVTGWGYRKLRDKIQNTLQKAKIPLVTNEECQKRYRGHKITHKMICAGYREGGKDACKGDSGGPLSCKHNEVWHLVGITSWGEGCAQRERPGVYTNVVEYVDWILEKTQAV
Sequence of human Factor XIa (P03951 19-387 partner): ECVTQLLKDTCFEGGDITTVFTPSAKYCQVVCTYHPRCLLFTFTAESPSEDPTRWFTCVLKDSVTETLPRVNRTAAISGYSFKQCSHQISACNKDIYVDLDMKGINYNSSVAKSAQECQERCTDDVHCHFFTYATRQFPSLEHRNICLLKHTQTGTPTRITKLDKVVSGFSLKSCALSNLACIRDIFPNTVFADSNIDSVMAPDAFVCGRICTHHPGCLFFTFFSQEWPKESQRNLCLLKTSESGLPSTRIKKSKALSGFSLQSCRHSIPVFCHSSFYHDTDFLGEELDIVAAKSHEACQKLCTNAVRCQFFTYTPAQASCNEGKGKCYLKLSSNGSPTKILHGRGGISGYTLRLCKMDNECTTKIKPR
Method in brief: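 Ki derived from the dependence of Vo/Vi on inhibitor concentration under a competitive-inhibition model, after pre-equilibration of enzyme and inhibitor. Reaction: 40 pM human FXIa, 100 μM Z-Gly-Pro-Arg-AFC, HEPES 50 mM pH 7.4 with NaCl, CaCl2 and PEG 8000; run at room temperature or 37° C.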

[1] = purified human Factor XIa 40 pM, Z-Gly-Pro-Arg-AFC 100 μM, pH 7.4

Sequence of Human plasma kallikrein (P03952 391-638): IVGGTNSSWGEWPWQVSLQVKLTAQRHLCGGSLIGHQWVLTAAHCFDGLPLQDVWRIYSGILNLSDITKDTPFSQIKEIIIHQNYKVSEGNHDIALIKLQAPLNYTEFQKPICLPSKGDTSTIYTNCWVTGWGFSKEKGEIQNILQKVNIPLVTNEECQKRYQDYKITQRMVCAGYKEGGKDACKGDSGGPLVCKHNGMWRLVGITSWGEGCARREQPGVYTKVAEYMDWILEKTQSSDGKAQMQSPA
Sequence of Human plasma kallikrein (P03952 20-390 partner): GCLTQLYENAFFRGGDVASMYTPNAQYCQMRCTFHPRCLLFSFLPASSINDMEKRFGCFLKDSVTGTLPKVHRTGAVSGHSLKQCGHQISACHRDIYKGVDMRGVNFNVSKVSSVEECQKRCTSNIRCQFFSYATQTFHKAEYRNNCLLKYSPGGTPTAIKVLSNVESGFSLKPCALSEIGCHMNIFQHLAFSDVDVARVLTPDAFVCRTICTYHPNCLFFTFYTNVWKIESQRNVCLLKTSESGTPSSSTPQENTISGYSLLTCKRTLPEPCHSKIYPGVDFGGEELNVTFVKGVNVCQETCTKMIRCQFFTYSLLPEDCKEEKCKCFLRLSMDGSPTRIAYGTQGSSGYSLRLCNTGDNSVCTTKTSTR

Structure (SMILES)	Ki (Human plasma kallikrein) [nM]	Ki (human Factor XIa; [1]) [nM]	Ki (human Factor XIa) [nM]
COC(=O)Nc1ccc(C(=O)N[C@@H](CC(C)(C)O)C(=O)N2CC[C@@]3(C2)OC(=O)Nc2ccc(Cl)cc23)cc1 [Example 111, methyl (4-(((S)-1-((R)-6-chloro-2-oxo-1,2-dihydrospiro[benzo[d][1,3]oxazine-4,3′-pyrrolidin]-1′-yl)-4-hydroxy-4-methyl-1-oxopentan-2-yl)carbamoyl)phenyl)carbamate]	76	12	–
COC(=O)Nc1ccc(C(=O)N[C@@H](Cc2ccccc2)C(=O)N2CCC[C@@]3(C2)OC(=O)Nc2ccc(OC)cc23)cc1 [Example 9, methyl (4-(((S)-1-((R)-6-methoxy-2-oxo-1,2-dihydrospiro[benzo[d][1,3]oxazine-4,3′-piperidin]-1′-yl)-1-oxo-3-phenylpropan-2-yl)carbamoyl)phenyl)carbamate]	2.6	2	–
COC(=O)Nc1cccc(C(=O)N[C@@H](Cc2ccccc2)C(=O)N2CCC3(C2)OC(=O)Nc2ccc(Cl)cc23)c1 (stereo partly drawn) [Example 143, methyl (3-(((2S)-1-(6-chloro-2-oxo-1,2-dihydrospiro[benzo[d][1,3]oxazine-4,3′-pyrrolidin]-1′-yl)-1-oxo-3-phenylpropan-2-yl)carbamoyl)phenyl)carbamate]	2.63	–	1250
COC(=O)Nc1ccc(C(=O)N[C@@H](Cn2cccn2)C(=O)N2CCC3(C2)OC(=O)Nc2ccc(Cl)cc23)cc1 (stereo partly drawn) [Example 31, methyl (4-(((2S)-1-(6-chloro-2-oxo-1,2-dihydrospiro[benzo[d][1,3]oxazine-4,3′-pyrrolidin]-1′-yl)-1-oxo-3-(1H-pyrazol-1-yl)propan-2-yl)carbamoyl)phenyl)carbamate]	77.3	26	–
Nc1n[nH]c2cc(C(=O)N[C@@H](Cc3ccccc3)C(=O)N3CCC[C@@]4(C3)OC(=O)Nc3ccc(Cl)cc34)ccc12 [Example 197]	1.3	–	0.62
COC(=O)Nc1ccc(C(=O)NC(C[C@H]2CCCO2)C(=O)N2CCC[C@@]3(C2)OC(=O)Nc2ccc(Cl)c(F)c23)cc1 (single isomer, unassigned) [Example 117A]	10.6	18.7	–
COC(=O)Nc1ccc(C(=O)N[C@@H](CC2CC2)C(=O)N2CCC[C@@]3(C2)OC(=O)Nc2ccc(C)cc23)cc1 [Example 66, methyl (4-(((S)-3-cyclopropyl-1-((R)-6-methyl-2-oxo-1,2-dihydrospiro[benzo[d][1,3]oxazine-4,3′-piperidin]-1′-yl)-1-oxopropan-2-yl)carbamoyl)phenyl)carbamate]	3.8	30	–

Second part, the compound after the results:

Ki (Human plasma kallikrein) [nM]	Ki (human Factor XIa; [1]) [nM]	Ki (human Factor XIa) [nM]	Structure (SMILES)
227	33.7	–	COC(=O)Nc1ccc(C(=O)N[C@@H](Cc2ccc3ccccc3c2)C(=O)N2CCC3(C2)OC(=O)Nc2ccc(Cl)cc23)cc1 (stereo partly drawn) [Example 50, methyl (4-(((2S)-1-(6-chloro-2-oxo-1,2-dihydrospiro[benzo[d][1,3]oxazine-4,3′-pyrrolidin]-1′-yl)-3-(naphthalen-2-yl)-1-oxopropan-2-yl)carbamoyl)phenyl)carbamate]
17.7	3.58	–	COC(=O)Nc1ccc(C(=O)N[C@@H](CC2CCCCC2)C(=O)N2CCC[C@@]3(C2)OC(=O)Nc2ccc(Cl)cc23)cc1 [Example 72, methyl (4-(((S)-1-((R)-6-chloro-2-oxo-1,2-dihydrospiro[benzo[d][1,3]oxazine-4,3′-piperidin]-1′-yl)-3-cyclohexyl-1-oxopropan-2-yl)carbamoyl)phenyl)carbamate]
< 1.36	0.77	–	COC(=O)Nc1ccc(C(=O)N[C@@H](CC(=O)N2CC[C@@H]2C)C(=O)N2CCC[C@@]3(C2)OC(=O)Nc2ccc(Cl)cc23)cc1 [Example 102, methyl (4-(((S)-1-((R)-6-chloro-2-oxo-1,2-dihydrospiro[benzo[d][1,3]oxazine-4,3′-piperidin]-1′-yl)-4-((S)-2-methylazetidin-1-yl)-1,4-dioxobutan-2-yl)carbamoyl)phenyl)carbamate]
19.3	–	17.1	O=C1Nc2ccc(Cl)cc2[C@@]2(CCN(C(=O)[C@H](Cc3ccccc3)NC(=O)c3ccc4[nH]c(=O)[nH]c(=O)c4c3)C2)O1 [Example 228]
2.53	2.82	–	COC(=O)Nc1ccc(C(=O)N[C@@H](Cc2ccc(F)cn2)C(=O)N2CCC[C@@]3(C2)OC(=O)Nc2ccc(Cl)c(F)c23)cc1 [Example 74, methyl (4-(((S)-1-((R)-6-chloro-5-fluoro-2-oxo-1,2-dihydrospiro[benzo[d][1,3]oxazine-4,3′-piperidin]-1′-yl)-3-(5-fluoropyridin-2-yl)-1-oxopropan-2-yl)carbamoyl)phenyl)carbamate]
32.6	3.48	–	COC(=O)Nc1ccc(C(=O)N[C@@H](Cc2ccc(-c3cc[nH]n3)cc2)C(=O)N2CC[C@@]3(C2)OC(=O)Nc2ccc(Cl)cc23)cc1 [Example 77, methyl (4-(((S)-3-(4-(1H-pyrazol-3-yl)phenyl)-1-((R)-6-chloro-2-oxo-1,2-dihydrospiro[benzo[d][1,3]oxazine-4,3′-pyrrolidin]-1′-yl)-1-oxopropan-2-yl)carbamoyl)phenyl)carbamate]
1.56	1.9	–	COC(=O)Nc1ccc(C(=O)N[C@@H](Cc2ccc(OC)cn2)C(=O)N2CCC[C@@]3(C2)OC(=O)Nc2ccc(Cl)c(F)c23)cc1 [Example 75, methyl (4-(((S)-1-((R)-6-chloro-5-fluoro-2-oxo-1,2-dihydrospiro[benzo[d][1,3]oxazine-4,3′-piperidin]-1′-yl)-3-(5-methoxypyridin-2-yl)-1-oxopropan-2-yl)carbamoyl)phenyl)carbamate]
11.2	12.7	–	COC(=O)Nc1ccc(C(=O)N[C@@H](CC2CC2)C(=O)N2CC[C@@]3(C2)OC(=O)Nc2ccc(Cl)c(F)c23)cc1 [Example 61, methyl (4-(((S)-1-((R)-6-chloro-5-fluoro-2-oxo-1,2-dihydrospiro[benzo[d][1,3]oxazine-4,3′-pyrrolidin]-1′-yl)-3-cyclopropyl-1-oxopropan-2-yl)carbamoyl)phenyl)carbamate]
28.4	28.1	–	COC(=O)Nc1ccc(C(=O)N[C@@H](Cc2cc(C3CC3)no2)C(=O)N2CC[C@@]3(C2)OC(=O)Nc2ccc(Cl)cc23)cc1 [Example 84, methyl (4-(((S)-1-((R)-6-chloro-2-oxo-1,2-dihydrospiro[benzo[d][1,3]oxazine-4,3′-pyrrolidin]-1′-yl)-3-(3-cyclopropylisoxazol-5-yl)-1-oxopropan-2-yl)carbamoyl)phenyl)carbamate]
1.27	2.01	–	COC(=O)Nc1ccc(C(=O)N[C@@H](Cc2ccc(NC(C)=O)cc2)C(=O)N2CCC[C@@]3(C2)OC(=O)Nc2ccc(Cl)cc23)cc1 [Example 48, methyl (4-(((S)-3-(4-acetamidophenyl)-1-((R)-6-chloro-2-oxo-1,2-dihydrospiro[benzo[d][1,3]oxazine-4,3′-piperidin]-1′-yl)-1-oxopropan-2-yl)carbamoyl)phenyl)carbamate]
< 1.3	5.55	–	COC(=O)Nc1ccc(C(=O)N[C@@H](Cc2ccc(C#N)cc2)C(=O)N2CCC[C@@]3(C2)OC(=O)Nc2ccc(Cl)cc23)cc1 [Example 45, methyl (4-(((S)-1-((R)-6-chloro-2-oxo-1,2-dihydrospiro[benzo[d][1,3]oxazine-4,3′-piperidin]-1′-yl)-3-(4-cyanophenyl)-1-oxopropan-2-yl)carbamoyl)phenyl)carbamate]

Source: US10093683B2, “Factor XIa inhibitors” (Merck Sharp & Dohme Corp., priority 2014, dated 2018)
